Results reported in US9993414B2, “Oral care composition comprising an Amadori compound” (Colgate-Palmolive Company, priority 2012, dated 2018).

Assays:
S. mutans (ATCC #25175) [1] = test: Inhibition of glucose metabolism with Streptococcus mutans (GC-MS of remaining α- and β-glucose); type: cell-based; conditions: for Glucose inhibition (%) from Example 5: versus Comparative Example 1 (no Amadori compound)
Method: In this Example, the ability of Amadori compound from the reaction of glucose with glycine to inhibit glucose metabolism with Streptococcus mutans was investigated. A stock glucose solution of 0.4 wt % glucose dissolved in distilled water (0.4 g/100 mL) was prepared. A stock Amadori compound from the reaction of glucose with glycine solution of 4.0 wt % Amadori compound from the reaction of glucose with glycine dissolved in distilled water (0.4 g/10 mL) was prepared. A bacterial solution was prepared as follows: S. mutans (ATCC #25175) was cultured overnight in TSB medium and then the resultant bacterial pellet was re-suspended bacterial to OD610=0.8 (a concentration with an optical reading of 0.8 at 610 nm for a 1-cm light path) with phosphate buffered saline (pH=7.4) (PBS). In accordance with Example 5, a test sample comprising 1 mL of the bacterial solution, 0.5 mL of the Amadori compound from the reaction of glucose with glycine solution and 0.5 mL of the glucose solution was subjected to incubation at a temperature of 37° C., representing normal human body temperature. Then, 200 μL of the test sample was transferred into individual HPLC vials after 10 minutes of the incubation period, after 30 minutes of the incubation period, and after 60 minutes of the incubation period. The HPLC vial cap was used to seal the vial. Immediately the HPLC vials were placed in a 100° C. water bath for about 5 minutes to denaturize the enzymes. The resultant products were subjected to gas chromatography-mass spectrometry (GC-MS) testing and analysis to determine the amounts of the α- and β-glucose forms present. In Table 1, the number of counts during MS detection for each respective α- and β-glucose form detected in the respective sample at the respective incubation time is indicated, the number of counts representing the amount of the respective glucose form present. In Comparative Example 1, the testing of Example 5 was repeated but on a control sample comprising 1 mL of the bacterial solution, 0.5 mL of the glucose solution and 0.5 mL of deionized water. In other words, Comparative Example 1 had no Amadori compound from the reaction of glucose with glycine. The control sample was also subjected to incubation at a temperature of 37° C. for the same respective time periods.

S. mutans (ATCC #25175) [2] = test: Inhibition of biofilm formation, crystal violet staining in saliva-coated 96-well plate; type: cell-based, Streptococcus mutans; conditions: for Inhibition against biofilm formation (in words): 1 wt % glucose and 2 wt % Amadori compound, versus no Amadori compound; for Average absorbance (590 nm), amount of biofilm: test sample 1 wt % glucose and 2 wt % Amadori compound, co-incubated overnight at 37° C., lower absorbance = less biofilm
Method: In this Example, the ability of Amadori compound from the reaction of glucose with glycine to inhibit biofilm formation was investigated. A sample of cultured S. mutans (ATCC #25175) bacterium was grown in TSB medium overnight and subsequently centrifuged to form a pellet, and then the centrifuged S. mutans was re-suspended with TSB (trypticase soy broth) containing 1% glucose and adjusted to OD610=0.5 (a concentration with an optical reading of 0.5 at 610 nm for a 1-cm light path). A 50 microliter sample of the re-suspended S. mutans (OD610=0.5) was co-incubated with a 50 microliter test sample. The test sample contained 1 wt % of glucose and 2 wt % of Amadori compound from the reaction of glucose with glycine. The 100 μL total of the re-suspended S. mutans (OD610=0.5) and test sample, representing a clarified saliva, was co-incubated in a 96-well plate which was pre-coated with the clarified saliva and then left overnight at 37° C. After the co-incubation period, the supernatant liquid was aspirated from the well plate. A 50 microliter amount of crystal violet was added to each well and permitted to stain any biofilm for a period of 10 minutes. The well plate was washed with 100 μL of PBS. The amount of biofilm was determined by irradiating the well plate with electromagnetic radiation having a wavelength of 590 nm and measuring the absorbance. The lower the absorbance reading, the less the amount of biofilm detected.

[3] = 10 minutes incubation at 37° C., same sample
[4] = 30 minutes incubation at 37° C., same sample
[5] = 60 minutes incubation at 37° C., same sample

Structure (SMILES): O=C(O)CNCC(=O)[C@@H](O)[C@H](O)[C@H](O)CO [Example 1, N-(1-deoxy-fructos-1-yl)glycine]
- α-glucose, number of counts during MS detection (S. mutans (ATCC #25175) [1]; 10 minutes incubation at 37° C., 1 mL bacterial solution + 0.5 mL 4.0 wt % compound solution + 0.5 mL 0.4 wt % glucose solution): 1753564 counts
- Total glucose (α + β), number of counts during MS detection (S. mutans (ATCC #25175) [1]; [3]): 5564912 counts
- β-glucose, number of counts during MS detection (S. mutans (ATCC #25175) [1]; [3]): 3811348 counts
- Glucose inhibition (%) from Example 5 (S. mutans (ATCC #25175) [1]; 10 minutes incubation): 56.4%
- Total glucose (α + β), number of counts during MS detection (S. mutans (ATCC #25175) [1]; [4]): 6220880 counts
- α-glucose, number of counts during MS detection (S. mutans (ATCC #25175) [1]; [4]): 1912144 counts
- β-glucose, number of counts during MS detection (S. mutans (ATCC #25175) [1]; [4]): 4308736 counts
- Glucose inhibition (%) from Example 5 (S. mutans (ATCC #25175) [1]; 30 minutes incubation): 59.9%
- Total glucose (α + β), number of counts during MS detection (S. mutans (ATCC #25175) [1]; [5]): 5403991 counts
- α-glucose, number of counts during MS detection (S. mutans (ATCC #25175) [1]; [5]): 1724203 counts
- β-glucose, number of counts during MS detection (S. mutans (ATCC #25175) [1]; [5]): 3679788 counts
- Glucose inhibition (%) from Example 5 (S. mutans (ATCC #25175) [1]; 60 minutes incubation): 70.1%
- Inhibition of glucose metabolization / degradation (in words) (S. mutans (ATCC #25175) [1]; co-incubated with S. mutans and glucose, versus no Amadori compound): inhibited glucose metabolization
- Inhibition of glucose metabolism (S. mutans (ATCC #25175) [1]; within the incubation time period of from 10 to 60 minutes): at least 56%
- Inhibition against biofilm formation (in words) (S. mutans (ATCC #25175) [2]; listed as Amadori compound from the reaction of glucose with glycine): very strong inhibition
- Average absorbance (590 nm), amount of biofilm (S. mutans (ATCC #25175) [2]): 0.2885

Structure (SMILES): N=C(N)NCCC[C@H](NCC(=O)[C@@H](O)[C@H](O)[C@H](O)CO)C(=O)O [Example 2, N-(1-deoxy-fructos-1-yl) arginine]
- Inhibition against biofilm formation (in words) (S. mutans (ATCC #25175) [2]; listed as Amadori compound from the reaction of glucose with arginine): relatively weak inhibition
- Average absorbance (590 nm), amount of biofilm (S. mutans (ATCC #25175) [2]): 1.2808

Structure (SMILES): O=C(O)CC[C@H](NCC(=O)[C@@H](O)[C@H](O)[C@H](O)CO)C(=O)O [Example 4, N-(1-deoxy-fructos-1-yl)glutamic acid]
- Inhibition against biofilm formation (in words) (S. mutans (ATCC #25175) [2]; listed as Amadori compound from the reaction of glucose with glutamic acid): very strong inhibition
- Average absorbance (590 nm), amount of biofilm (S. mutans (ATCC #25175) [2]): 0.5476
